Experiments:
Assay type in all cases: in vivo, mouse
[1] = test system: IEC junction; experiment: Transmission electron microscopy of intestines, ruthenium red; conditions: day 7 and day 21; allo-BMT recipients, intragastric butyrate
Text: Samples were stained as previously described (Soler, A. P. et al. Increased tight junctional permeability is associated with the development of colon cancer. Carcinogenesis 20, 1425-1431 (1999)). Briefly, the intestines from mice that received butyrate or vehicle treatment were harvested 7 days and 21 days following syngeneic and allogeneic BMT and flushed with 0.1 M Sorensen's phosphate buffer (pH 7.4) to remove luminal contents using a 20G needle. The intestines were next gently flushed with 0.1% ruthenium red (RR) containing 2.5% glutaraldehyde fixative in Sorensen's buffer and immediately placed in a dish containing the stain/fixative. Cross sections were immediately sliced (2 mm wide) from the duodenum, jejunum, and illium. The tissue was then rinsed three times with Sorensen's buffer, containing 0.1 percent RR and post-fixed for one hour in one percent osmium tetroxide in the same buffer containing RR. […] Images were recorded digitally using a Hamamatsu ORCA-HR digital camera system operated using AMT software (Advanced Microscopy Techniques Corp., Danvers, Mass.).
(§1) Intestinal permeability after allo-BMT was assessed by intragastric administration of FITC-dextran, a non-metabolized carbohydrate (Hanash, A. M. et al. Interleukin-22 protects intestinal stem cells from immune-mediated tissue damage and regulates sensitivity to graft versus host disease. Immunity 37, 339-350 (2012)).

[2] = test system: CD326+ intestinal epithelial cells (IECs); experiment: Western blot / qPCR of CD326+ IECs isolated from BMT recipients
Procedure: CD326+ purified IECs were harvested from animals that received syngeneic (BALB/c→BALB/c) or allogeneic (C57BL/6J→BALB/c) BMT. Whole cell lysates were next obtained and protein concentrations determined with Pierce BCA Protein Assay (Thermo Scientific). Equal amounts of protein (20 μg) were separated by SDS-PAGE gel electrophoresis (120V, 1.5 h) and subsequently transferred to polyvinylidene difluoride (PVDF) membrane using a Bio-Rad semi-dry transfer cell (Hercules, Calif.) (20V, lh). The following antibodies were used to analyze the membranes with dilutions in accordance with the manufacturers specification sheet: α-tubulin (Cell Signaling, clone 11H10), Acetyl histone H4 (Lys5/8/12/16) (EMD Millipore, clone 3HH-4C10), SLC5A8 (abcam), GPR43 (abcam), Occludin (abcam, clone EPR8208), JAM (abcam, clone EP1042Y), and Claudin 5 (abcam). Secondary anti-rabbit antibody conjugated to HRP (Jackson ImmunoResearch, Cat No. 111-035-003) was used to detect primary antibodies, where needed. Densitometric analysis was performed using ImageJ software (National Institutes of Health; Bethesda, […].).
mRNA was isolated from samples using RNeasy kit following manufacturers instructions (Qiagen; Venlo, Netherlands). Using 1 μg of each mRNA template, cDNA was synthesized using SuperScript VILO (Invitrogen; Carlsbad, Calif.). qPCR primers were designed for murine targets. All primers were verified for the production of a single specific PCR product using a melting curve program and are shown below in Table 2.
It was next determined if the reduced amount of butyrate in IECs could be restored in vivo and further, whether this would have a functional impact on histone acetylation. In addition to utilizing transporters, butyrate can also diffuse across the mucosal barrier into IECs when present in high concentrations (Ganapathy, V., Thangaraju, M., Prasad, P. D., Martin, P. M. & Singh, N. Transporters and receptors for short-chain fatty acids as the molecular link between colonic bacteria and the host. Curr Opin Pharmacol 13, 869-874 (2013); Charney, A. N., Micic, L. & Egnor, R. W. Nonionic diffusion of short-chain fatty acids across rat colon. Am. J Physiol. 274, G518-24 (1998)). Therefore, it was hypothesized that administration of high amounts of butyrate locally would restore histone acetylation of IECs, in vivo. To test this, C57BL/6J cells were transferred to Balb/c mice and administered vehicle or butyrate via daily intragastric gavage.
To determine if these are involved in in vivo protection from GVHD, the expression of pro- and anti-apoptotic proteins as well as junctional proteins in IECs isolated 21 days following allo-BMT was determined. […] Overall, the results identify several ways in which butyrate can directly enhance epithelial cell function ranging from protection from irradiation and allo-T cell mediated apoptosis to proliferation and junctional protein expression, both in vitro and in vivo.

[3] = test system: HDAC; experiment: HDAC enzymatic activity in donor T cells from recipient spleen; conditions: butyrate vs vehicle treated allogeneic animals
Procedure: To further determine whether the salutary effects of local treatment with butyrate on GI GVHD were dependent on donor Treg cells, a BMT was performed utilizing the same HC mismatched BMT model in which C57BL/6J (H-2b) cells are transferred to Balb/c (H-2d) mice. T cell-depleted (TCD) bone marrow was transplanted and purified CD4+CD25− T cells from donors. Vehicle or butyrate was administered to the recipients daily for 1 week, then every other day thereafter as above. […]. J. Exp. Med. 204, 57-63 (2007); Lahl, K. & Sparwasser, T. In vivo depletion of FoxP3+ Tregs using the DEREG mouse model. […]. The Treg depleted T cells were then used as donor cells in the major MHC mismatch model used above. […] To further examine whether the local administration of butyrate impacted donor T cells directly, the HDAC and HAT enzymatic activity was determined in donor T cells harvested from the recipient animals. Both the HDAC activity or HAT activity in the donor T cells harvested from the recipient spleen were similar between butyrate and vehicle treated allogeneic animals.

[4] = test system: GI-barrier; experiment: FITC-dextran assay (intestinal permeability); conditions: 21 days following transplant; butyrate-treated vs vehicle allo-BMT recipients
Procedure: Food and water was withheld from all mice for four hours on day 21 post bone marrow transplant. FITC-dextran (Sigma-Aldrich; St. Louis, Mo.) was administered by 20G-1.5″ flexible intragastric gavage needle (Braintree Scientific; Braintree, Mass.) at a concentration of 50 mg/ml in PBS. BMT recipients received 800 mg/kg (˜16 mg/mouse). Four hours later, serum was collected from peripheral blood, diluted 1:1 with PBS, and analyzed on a plate reader at excitation/emission wavelength of 485 nm/535 nm. Concentrations of FITCdextran experimental samples were determined based on a standard curve.
as §1

[5] = 21 days following allo-BMT, intragastric butyrate

## CCCC(=O)[O-].[Na+] [butyrate, sodium butyrate]
[1]
  integrity of the IEC junction (TEM): preserved
[2]; 21 days following allo-BMT, butyrate treated animals
  gene expression of junctional proteins in IECs: similarly increased
[2]; [5]
  BCL-B (Bcl2110) expression in IECs: increased
  transcripts of Bak1 in IECs: significantly decreased
  transcripts of Bax in IECs: significantly decreased
[2]; C57BL/6J→Balb/c, daily intragastric butyrate for 21 days, vs untreated allo-BMT recipients
  acetylation of histone H4 in IECs: significantly restored
[2]; daily intragastric gavage of butyrate
  butyrate transporter SLC5A8 in IECs: increase
[2]; recipients of allo-BMT treated with intragastric butyrate
  protein amounts of Occludin, JAM and Claudin 5 (immunoblot): increased junctional proteins
[3]
  HDAC activity in donor T cells: similar
[4]
  detectable FITC-dextran in the serum: significantly less

From patent US11260083B2, “Compositions and methods for treating and preventing graft versus host disease” (The Regents of the University of Michigan, priority 2016, dated 2022)
